Test results as given in patent publication US20060135494A1, “Methods of treating injuries of the nervous system associated with hemorrhage” (priority 2002, published 2006).

Columns and labels:
Assay type in all cases: in vivo
[1] = system: caspase-3-like proteases; assay: DEVD-specific caspase activity in ICH rat brain tissue
Source text: All animals received humane care in compliance with the institute's guidelines as outlined in “Guide for the Care and Use of Laboratory Animals” prepared by the National Academy of Sciences and published by the National Institutes of Health (NIH publication no. 86-23, revised 1985). Female Sprague-Dawley rats (250-300 grams (g); Harlan Sprague-Dawley, Inc., Indianapolis, Ind.) were anesthesized with an intramuscular injection of a mixture of ketamine and xylazine and set in supine in a Kopf headholder. The right carotid artery, external and internal branches, was exposed and the distal end of the external carotid freed and retracted to line with the internal carotid. […]
Caspase activation was determined in dissected brain tissue from the ispilateral and corresponding contralateral areas. […] General caspase activity was evaluated by enzymatic cleavage of chromophore p-nitroanilide (pNA) from the substrate N-acetyl-Asp-Glu-Val-Asp-pNA (DEVD-pNA; Sigma Chemical Co.). […] The reaction mixtures were incubated at 37° C. for 1 hour, and the formation of pNA was measured at 405 nm using a 96-well plate reader. Protein concentrations were determined using the Bio-Rad protein assay kit (Bio-Rad Laboratories, Hercules, Calif.) according to the manufacturer's specifications.

[2] = system: traumatic brain injury (blunt head trauma); assay: TUNEL-positive cells in blunt head trauma rat model
Source text: UDCA and TUDCA are nontoxic, endogenously produced, bile acids that act both in vitro and in vivo as potent anti-apoptotic agents. In addition to their effects at preventing mitochondrial dysfunction by inhibiting membrane depolarization and channel formation (Rodrigues et al., J Clin Invest 1998;101:2790-2799 and Rodrigues et al., Cell Death Differ 1999;6:842-854), these molecules may also play key regulatory roles in signal transduction pathways by modulating cytosolic calcium levels and in gene expression by regulating transcription (Guicciari et al., Hepatology 2002;35:971-973). […] Administration of TUDCA almost completely abolished the appearance of TUNEL-positive cells, the activation of caspase-3-like proteases, and the histological damage of the peri-ICH region. These findings are consistent with the inhibition of neuronal apoptosis by TUDCA. Further, most neurons can be rescued by TUDCA up to 3 hours, and some up to 6 hours, from the onset of the hemorrhage, consistent with a delayed activation of neuronal cell death. Thus, at least in this model, many cells remain viable for several hours and can be recovered by an anti-apoptotic agent, provided therapy is initiated within this time window. Finally, TUDCA was also markedly effective at reducing apoptosis after brain injury in a blunt head trauma rat model. […]

[3] = system: collagenase-induced intrastriatal hemorrhage (ICH); assay: Hematoma (hemorrhagic lesion) volume in collagenase-induced ICH rat model; details: for Protection (%) ICH core / Protection (%) Peri-ICH: mean ± SEM
Source text: All animals received humane care in compliance with the institute's guidelines as outlined in “Guide for the Care and Use of Laboratory Animals” prepared by the National Academy of Sciences and published by the National Institutes of Health (NIH publication no. 86-23, revised 1985). Female Sprague-Dawley rats (250-300 grams (g); Harlan Sprague-Dawley, Inc., Indianapolis, Ind.) were anesthesized with an intramuscular injection of a mixture of ketamine and xylazine and set in supine in a Kopf headholder. The right carotid artery, external and internal branches, was exposed and the distal end of the external carotid freed and retracted to line with the internal carotid. A PE-10 polyethylene tube (Becton-Dickinson, Sparks, Md.) was then introduced from the external into the internal carotid artery, and the former was ligated to hold the tube. TUDCA (Calbiochem-Novabiochem Corp., San Diego, Calif.) was dissolved in phosphate buffer, pH 7.4 at […] milligrams per milliliter (mg/ml). Saline or TUDCA solution (1 milliliter per kilogram body weight (ml/kg bw)) were injected directly into the internal carotid artery, within 5 minutes. Different concentrations of TUDCA (10, 50, 100, and 200 mg/kg bw) were administered 1 hour prior to, or 1, 3, and 6 hours after collagenase injection. The polyethylene tube was finally removed, the end of the external carotid artery cauterized, and the wound closed. To induce stroke injury, the animals were placed in a stereotaxic apparatus and ICH induced by collagenase infusion (Rosenberg et al., Stroke 1990;21:801-807 and Chesney et al., Stroke 1995;26:312-316). In brief, a midline incision was made through the scalp to expose the skull. […] (0.5 microliters per minute (μL/min)) of saline containing 0.5 unit (U) bacterial collagenase (type VII; Sigma Chemical Co., St. Louis, Mo.) was made stereotaxically into the striatum with a 10-μl Hamilton syringe at the following coordinates: 0.4 millimeter (mm) anterior and 3.0 mm lateral to bregma and 5.0 mm ventral to the cortical surface. Once the infusion was complete, the Hamilton syringe was left in place for 3 minutes. Body temperature was maintained at 37° C. with a CMA/150 temperature controller throughout the surgery. The rats recovered from surgery in a cage containing food and heated by an incandescent light bulb. Neurological testing was performed at 2 days after induction of ICH. The animals were then sacrificed, and the brains removed and frozen at −70° C. for either serial cryostat sectioning, or RNA and protein extraction. In a subset of animals, serum and brain samples were collected for bile acid analysis.
After behavioral testing, rats were sacrificed and the brains removed for serial cryostat sectioning. Volumes of hemorrhagic lesion, including core and peri-ICH regions, were quantitated using unbiased stereologic volumetric analysis of 20-μm cryostat sections after staining according to the Nissl protocol. Volumetric analysis was performed according to Cavalieri's method (Howard et al, Unbiased stereology: three-dimensional measurement in microscopy. New York: BIOS Scientific Publishers Ltd 1998). The areas of lesion were determined in 11 Nissl-stained sections 20 μm in thickness, 900 μm apart, from each animal. Volumes (mm^3) were calculated according to the formula V=T×a/p×ΣPi, where V=volume of interest, T=distance between sections (mm), a/p=area associated with each point (mm^2), and Pi=points hitting object in each section.

[4] = 100 mg/kg bw TUDCA administered at 1 h
[5] = 100 mg/kg bw TUDCA administered at 3 h
[6] = 100 mg/kg bw TUDCA administered at 6 h

C[C@H](CCC(=O)NCCS(=O)(=O)O)[C@H]1CC[C@H]2[C@@H]3[C@@H](O)C[C@@H]4C[C@H](O)CC[C@]4(C)[C@H]3CC[C@]12C [TUDCA, tauroursodeoxycholic acid]
caspase activity versus vehicle-injected animals ([1]; 100 mg/kg bw TUDCA, time-course 1 hour before to 6 hours after collagenase): remained markedly lower | reduction of caspase activation in the lesioned hemisphere ([1]; 100 and 200 mg/kg bw TUDCA 1 hour before collagenase): 45-60% | reduction of apoptosis ([2]; 24-h pre-injury treatment plus treatments at head trauma and 24 h later): more than 50% | number of TUNEL-positive cells per high power field ([2]; 24-h pre-injury treatment plus two post-injury treatments, vehicle approximately 27): 12 | hemorrhagic lesions larger in vehicle-injected group compared with TUDCA-treated rats ([3]; 100 mg/kg bw TUDCA 1 hour before collagenase, 2 days): approximately 50% | protective effect on volume of brain lesioned ([3]; 100 mg/kg bw TUDCA 1 hour before or up to 3 hours after hemorrhage, 2 days): 40-50% | protective effect on volume of brain lesioned ([3]; 100 mg/kg bw TUDCA 6 hours after collagenase infusion): partially lost but still evident | Protection (%) ICH core [3, 4]: 47.7 ± 3.2 % | Protection (%) Peri-ICH [3, 4]: 48.6 ± 3.5 % | Protection (%) ICH core [3, 5]: 30.0 ± 18.9 % | Protection (%) Peri-ICH [3, 5]: 42.8 ± 14.9 % | Protection (%) ICH core [3, 6]: 20.9 ± 12.9% | Protection (%) Peri-ICH [3, 6]: 38.7 ± 12.9 % | hemorrhagic lesion volume ([3]; 100 mg/kg bw TUDCA into internal carotid artery 1 hour before collagenase, 2 days after infusion, mean±SEM): 143.9±46.5 mm^3 | reduction in lesion volume ([3]; 200 mg/kg bw TUDCA 1 hour before collagenase, 2 days): ~60% | protection of lesion volume ([3]; 10 and 50 mg/kg bw dose regimens, 1 hour before collagenase): significantly less protective
